Reference: patent US12227500B2, “Substituted pyrrolo[2,3-b]pyridines for suppressing toxic endoplasmic reticulum stress” (THE TRUSTEES OF COLUMBIA UNIVERSITY IN THE CITY OF NEW YORK, priority 2018, dated 2025)

Columns and labels:
Assay in all cases: Radiolabeled ATP kinase assay, panel of 371 kinases (Table S6)
Assay type in all cases: biochemical
[1] = target: T1, panel of 371 human kinases (Homo sapiens, UniProt O14920); details: IKKb/IKBKE; 0.1 μM; 10 μM ATP; read-out: % Enzyme Activity (relative to DMSO controls)
T1 construct: purchased Reaction Biology Corp
From the text: (§1) ; FIG. 38C). […]. Further targeted analyses, such as genetic knock-down or knock-out, may be warranted to parse the role of these additional kinases in our model of neurodegeneration.

[2] = target: T2, panel of 371 human kinases (Homo sapiens, UniProt O14965); details: Aurora A; 0.1 μM; 10 μM ATP; read-out: % Enzyme Activity (relative to DMSO controls)
T2 construct: purchased Reaction Biology Corp
From the text: as §1

[3] = target: T3, panel of 371 human kinases (Homo sapiens, UniProt O94804); details: LOK/STK10; 0.1 μM; 10 μM ATP; read-out: % Enzyme Activity (relative to DMSO controls)
T3 construct: purchased Reaction Biology Corp
From the text: as §1

[4] = target: T4, panel of 371 human kinases (Homo sapiens, UniProt O94921); details: CDK14/cyclin Y (PFTK1); 0.1 μM; 10 μM ATP; read-out: % Enzyme Activity (relative to DMSO controls)
T4 construct: purchased Reaction Biology Corp
From the text: as §1

[5] = target: T5, panel of 371 human kinases (Homo sapiens, UniProt O95819); details: for remaining activity at 0.1 µM: HGK/MAP4K4, 10 μM ATP, read-out: % Enzyme Activity (relative to DMSO controls)
T5 construct: purchased Reaction Biology Corp
From the text: as §1

[6] = target: T6, panel of 371 human kinases (Homo sapiens, UniProt P07948); details: LYN; 0.1 μM; 10 μM ATP; read-out: % Enzyme Activity (relative to DMSO controls)
T6 construct: purchased Reaction Biology Corp
From the text: as §1

[7] = target: T7, panel of 371 human kinases (Homo sapiens, UniProt P08581); details: c-MET; 0.1 μM; 10 μM ATP; read-out: % Enzyme Activity (relative to DMSO controls)
T7 construct: purchased Reaction Biology Corp
From the text: as §1

[8] = target: T8, panel of 371 human kinases (Homo sapiens, UniProt P17612); details: PKA; 0.1 μM; 10 μM ATP; read-out: % Enzyme Activity (relative to DMSO controls)
T8 construct: purchased Reaction Biology Corp
From the text: as §1

[9] = target: T9, panel of 371 human kinases (Homo sapiens, UniProt P22694); details: PKAcb; 0.1 μM; 10 μM ATP; read-out: % Enzyme Activity (relative to DMSO controls)
T9 construct: purchased Reaction Biology Corp
From the text: as §1

[10] = target: T10, panel of 371 human kinases (Homo sapiens, UniProt P28482); details: ERK2/MAPK1; 0.1 μM; 10 μM ATP; read-out: % Enzyme Activity (relative to DMSO controls)
T10 construct: purchased Reaction Biology Corp
From the text: as §1

[11] = target: T11, panel of 371 human kinases (Homo sapiens, UniProt P29320); details: EPHA3; 0.1 μM; 10 μM ATP; read-out: % Enzyme Activity (relative to DMSO controls)
T11 construct: purchased Reaction Biology Corp
From the text: as §1

[12] = target: T12, panel of 371 human kinases (Homo sapiens, UniProt P31751); details: AKT2; 0.1 μM; 10 μM ATP; read-out: % Enzyme Activity (relative to DMSO controls)
T12 construct: purchased Reaction Biology Corp
From the text: as §1

[13] = target: T13, panel of 371 human kinases (Homo sapiens, UniProt P43250); details: GRK6; 0.1 μM; 10 μM ATP; read-out: % Enzyme Activity (relative to DMSO controls)
T13 construct: purchased Reaction Biology Corp
From the text: as §1

[14] = target: T14, panel of 371 human kinases (Homo sapiens, UniProt P49760); details: CLK2; 0.1 μM; 10 μM ATP; read-out: % Enzyme Activity (relative to DMSO controls)
T14 construct: purchased Reaction Biology Corp
From the text: as §1

[15] = target: T15, panel of 371 human kinases (Homo sapiens, UniProt P54756); details: EPHA5; 0.1 μM; 10 μM ATP; read-out: % Enzyme Activity (relative to DMSO controls)
T15 construct: purchased Reaction Biology Corp
From the text: as §1

[16] = target: T16, panel of 371 human kinases (Homo sapiens, UniProt P54764); details: EPHA4; 0.1 μM; 10 μM ATP; read-out: % Enzyme Activity (relative to DMSO controls)
T16 construct: purchased Reaction Biology Corp
From the text: as §1

[17] = target: T17, panel of 371 human kinases (Homo sapiens, UniProt Q02763); details: TIE2/TEK; 0.1 μM; 10 μM ATP; read-out: % Enzyme Activity (relative to DMSO controls)
T17 construct: purchased Reaction Biology Corp
From the text: as §1

[18] = target: T18, panel of 371 human kinases (Homo sapiens, UniProt Q52WX2); details: SBK1; 0.1 μM; 10 μM ATP; read-out: % Enzyme Activity (relative to DMSO controls)
T18 construct: purchased Reaction Biology Corp
From the text: as §1

[19] = target: T19, panel of 371 human kinases (Homo sapiens, UniProt Q96PF2); details: TSSK2; 0.1 μM; 10 μM ATP; read-out: % Enzyme Activity (relative to DMSO controls)
T19 construct: purchased Reaction Biology Corp
From the text: as §1

[20] = target: T20, panel of 371 human kinases (Homo sapiens, UniProt Q99986); details: VRK1; 0.1 μM; 10 μM ATP; read-out: % Enzyme Activity (relative to DMSO controls)
T20 construct: purchased Reaction Biology Corp
From the text: as §1

[21] = target: T21, panel of 371 human kinases (Homo sapiens, UniProt Q9H093); details: SNARK/NUAK2; 0.1 μM; 10 μM ATP; read-out: % Enzyme Activity (relative to DMSO controls)
T21 construct: purchased Reaction Biology Corp
From the text: as §1

[22] = target: T22, panel of 371 human kinases (Homo sapiens, UniProt Q9NYL2); details: ZAK/MLTK; 0.1 μM; 10 μM ATP; read-out: % Enzyme Activity (relative to DMSO controls)
T22 construct: purchased Reaction Biology Corp
From the text: as §1

[23] = target: T23, panel of 371 human kinases (Homo sapiens, UniProt Q9Y3S1); details: WNK2; 0.1 μM; 10 μM ATP; read-out: % Enzyme Activity (relative to DMSO controls)
T23 construct: purchased Reaction Biology Corp
From the text: as §1

[24] = target: T24, panel of 371 human kinases (Homo sapiens, UniProt Q9Y5S2); details: MRCKb/CDC42BPB; 0.1 μM; 10 μM ATP; read-out: % Enzyme Activity (relative to DMSO controls)
T24 construct: purchased Reaction Biology Corp
From the text: as §1

T5 sequence (O95819 whole entry): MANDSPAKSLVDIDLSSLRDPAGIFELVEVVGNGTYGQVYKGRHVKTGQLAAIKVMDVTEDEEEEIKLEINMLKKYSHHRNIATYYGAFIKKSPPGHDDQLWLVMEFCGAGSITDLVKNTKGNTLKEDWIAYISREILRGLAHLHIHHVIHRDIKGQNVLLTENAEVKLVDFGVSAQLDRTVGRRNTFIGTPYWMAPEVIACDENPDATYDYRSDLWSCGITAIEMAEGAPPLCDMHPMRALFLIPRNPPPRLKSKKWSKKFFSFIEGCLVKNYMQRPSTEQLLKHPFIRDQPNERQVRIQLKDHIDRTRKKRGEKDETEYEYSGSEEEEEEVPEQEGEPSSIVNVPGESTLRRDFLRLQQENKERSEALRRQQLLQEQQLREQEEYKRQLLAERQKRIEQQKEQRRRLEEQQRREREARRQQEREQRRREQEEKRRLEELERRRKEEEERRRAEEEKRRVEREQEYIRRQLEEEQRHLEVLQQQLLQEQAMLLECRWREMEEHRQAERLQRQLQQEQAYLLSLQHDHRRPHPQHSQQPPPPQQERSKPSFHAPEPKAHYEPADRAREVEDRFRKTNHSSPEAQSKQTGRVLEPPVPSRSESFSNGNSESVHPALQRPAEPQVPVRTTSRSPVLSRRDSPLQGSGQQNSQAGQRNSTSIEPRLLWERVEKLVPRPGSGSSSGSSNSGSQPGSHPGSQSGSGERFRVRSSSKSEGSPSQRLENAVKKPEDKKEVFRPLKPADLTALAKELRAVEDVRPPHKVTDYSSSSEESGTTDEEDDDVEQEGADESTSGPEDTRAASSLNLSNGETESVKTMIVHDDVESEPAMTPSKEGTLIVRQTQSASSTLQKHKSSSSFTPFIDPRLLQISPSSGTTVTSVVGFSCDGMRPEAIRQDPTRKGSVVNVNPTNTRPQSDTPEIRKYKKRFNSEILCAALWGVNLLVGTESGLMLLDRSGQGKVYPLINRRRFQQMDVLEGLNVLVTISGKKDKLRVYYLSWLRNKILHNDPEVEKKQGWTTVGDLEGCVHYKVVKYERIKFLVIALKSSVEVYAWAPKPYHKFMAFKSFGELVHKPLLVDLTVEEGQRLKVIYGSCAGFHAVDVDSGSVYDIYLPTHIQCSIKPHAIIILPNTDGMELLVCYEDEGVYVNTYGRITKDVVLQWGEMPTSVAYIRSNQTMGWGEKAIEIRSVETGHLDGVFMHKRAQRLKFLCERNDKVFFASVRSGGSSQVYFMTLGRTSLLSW
T24 sequence (Q9Y5S2 whole entry): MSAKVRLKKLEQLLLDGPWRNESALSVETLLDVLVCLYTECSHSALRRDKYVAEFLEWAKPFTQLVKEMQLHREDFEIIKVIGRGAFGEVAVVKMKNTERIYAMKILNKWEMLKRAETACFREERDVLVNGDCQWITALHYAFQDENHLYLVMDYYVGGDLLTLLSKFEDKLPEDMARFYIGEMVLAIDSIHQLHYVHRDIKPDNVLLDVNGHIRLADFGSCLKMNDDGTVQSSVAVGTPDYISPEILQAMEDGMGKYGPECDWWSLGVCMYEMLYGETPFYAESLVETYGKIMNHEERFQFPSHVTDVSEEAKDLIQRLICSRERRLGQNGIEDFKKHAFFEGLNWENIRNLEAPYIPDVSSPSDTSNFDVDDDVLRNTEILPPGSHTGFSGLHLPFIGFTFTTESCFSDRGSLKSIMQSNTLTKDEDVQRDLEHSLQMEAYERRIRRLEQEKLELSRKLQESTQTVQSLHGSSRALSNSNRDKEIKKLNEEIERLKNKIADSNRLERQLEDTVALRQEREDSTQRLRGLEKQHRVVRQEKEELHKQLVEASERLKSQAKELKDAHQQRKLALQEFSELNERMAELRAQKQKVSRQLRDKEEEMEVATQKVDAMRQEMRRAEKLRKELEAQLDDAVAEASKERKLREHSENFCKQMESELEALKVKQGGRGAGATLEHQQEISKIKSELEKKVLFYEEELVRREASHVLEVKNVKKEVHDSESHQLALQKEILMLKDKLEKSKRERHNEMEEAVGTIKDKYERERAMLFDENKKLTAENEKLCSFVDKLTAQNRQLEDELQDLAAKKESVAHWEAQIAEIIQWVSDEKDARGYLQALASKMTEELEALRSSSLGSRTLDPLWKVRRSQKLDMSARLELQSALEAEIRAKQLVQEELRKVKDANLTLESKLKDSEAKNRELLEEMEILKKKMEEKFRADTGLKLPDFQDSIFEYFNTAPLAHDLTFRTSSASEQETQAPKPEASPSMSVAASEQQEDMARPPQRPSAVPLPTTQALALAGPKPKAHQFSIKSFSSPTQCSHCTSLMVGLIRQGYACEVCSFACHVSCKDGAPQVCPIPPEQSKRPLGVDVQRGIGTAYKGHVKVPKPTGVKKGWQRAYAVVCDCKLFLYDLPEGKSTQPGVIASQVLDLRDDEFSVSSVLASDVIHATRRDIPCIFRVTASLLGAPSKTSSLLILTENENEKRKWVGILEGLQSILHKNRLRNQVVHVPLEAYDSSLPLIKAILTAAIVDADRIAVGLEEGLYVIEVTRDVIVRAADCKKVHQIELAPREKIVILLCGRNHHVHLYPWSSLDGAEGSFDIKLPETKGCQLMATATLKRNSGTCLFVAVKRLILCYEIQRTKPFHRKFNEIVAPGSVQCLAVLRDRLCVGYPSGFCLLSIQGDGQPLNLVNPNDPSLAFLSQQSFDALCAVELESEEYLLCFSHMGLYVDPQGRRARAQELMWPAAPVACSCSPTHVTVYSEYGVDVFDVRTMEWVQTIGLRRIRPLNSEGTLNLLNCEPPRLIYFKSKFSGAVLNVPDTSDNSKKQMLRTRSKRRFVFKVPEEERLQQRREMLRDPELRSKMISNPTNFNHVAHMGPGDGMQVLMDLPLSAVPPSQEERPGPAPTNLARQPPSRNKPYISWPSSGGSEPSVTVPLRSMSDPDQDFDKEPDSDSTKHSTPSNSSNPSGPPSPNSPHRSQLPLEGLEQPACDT
T22 sequence (Q9NYL2 whole entry): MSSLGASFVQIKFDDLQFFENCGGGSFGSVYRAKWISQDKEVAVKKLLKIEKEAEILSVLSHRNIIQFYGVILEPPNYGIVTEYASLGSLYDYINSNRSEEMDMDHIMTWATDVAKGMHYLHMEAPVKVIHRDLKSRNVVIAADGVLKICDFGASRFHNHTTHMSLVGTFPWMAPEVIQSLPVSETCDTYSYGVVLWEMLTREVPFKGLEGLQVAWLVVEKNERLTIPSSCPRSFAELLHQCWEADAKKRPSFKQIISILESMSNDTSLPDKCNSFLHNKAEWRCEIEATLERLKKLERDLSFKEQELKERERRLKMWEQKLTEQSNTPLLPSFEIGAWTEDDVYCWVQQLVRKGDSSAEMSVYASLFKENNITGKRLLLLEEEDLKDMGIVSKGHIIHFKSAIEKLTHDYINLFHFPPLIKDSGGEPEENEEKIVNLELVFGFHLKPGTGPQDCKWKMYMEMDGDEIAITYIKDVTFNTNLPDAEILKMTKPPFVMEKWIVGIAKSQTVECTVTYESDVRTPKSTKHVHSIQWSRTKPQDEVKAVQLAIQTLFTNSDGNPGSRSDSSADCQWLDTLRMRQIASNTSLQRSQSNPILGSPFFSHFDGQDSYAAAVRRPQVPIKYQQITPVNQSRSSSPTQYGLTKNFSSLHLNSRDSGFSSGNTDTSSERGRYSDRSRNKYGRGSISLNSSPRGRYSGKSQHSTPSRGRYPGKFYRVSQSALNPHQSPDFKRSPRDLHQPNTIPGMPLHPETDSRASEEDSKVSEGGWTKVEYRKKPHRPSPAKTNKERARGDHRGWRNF
T21 sequence (Q9H093 whole entry): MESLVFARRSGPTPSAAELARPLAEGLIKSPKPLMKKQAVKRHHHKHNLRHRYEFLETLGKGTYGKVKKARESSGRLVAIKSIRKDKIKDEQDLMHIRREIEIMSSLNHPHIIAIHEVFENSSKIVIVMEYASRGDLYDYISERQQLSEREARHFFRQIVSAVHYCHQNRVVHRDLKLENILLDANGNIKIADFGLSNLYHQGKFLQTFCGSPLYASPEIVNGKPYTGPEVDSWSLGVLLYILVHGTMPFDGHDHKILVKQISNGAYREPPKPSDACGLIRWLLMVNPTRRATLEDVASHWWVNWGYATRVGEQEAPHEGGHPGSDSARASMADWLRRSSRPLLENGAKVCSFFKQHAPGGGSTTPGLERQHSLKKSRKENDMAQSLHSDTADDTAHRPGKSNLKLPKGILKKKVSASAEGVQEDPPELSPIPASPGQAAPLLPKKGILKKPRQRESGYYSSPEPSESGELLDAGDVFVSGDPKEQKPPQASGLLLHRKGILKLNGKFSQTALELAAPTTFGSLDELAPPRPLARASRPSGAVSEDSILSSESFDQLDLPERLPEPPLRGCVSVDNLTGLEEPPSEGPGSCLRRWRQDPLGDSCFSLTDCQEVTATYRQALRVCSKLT
T4 sequence (O94921 whole entry): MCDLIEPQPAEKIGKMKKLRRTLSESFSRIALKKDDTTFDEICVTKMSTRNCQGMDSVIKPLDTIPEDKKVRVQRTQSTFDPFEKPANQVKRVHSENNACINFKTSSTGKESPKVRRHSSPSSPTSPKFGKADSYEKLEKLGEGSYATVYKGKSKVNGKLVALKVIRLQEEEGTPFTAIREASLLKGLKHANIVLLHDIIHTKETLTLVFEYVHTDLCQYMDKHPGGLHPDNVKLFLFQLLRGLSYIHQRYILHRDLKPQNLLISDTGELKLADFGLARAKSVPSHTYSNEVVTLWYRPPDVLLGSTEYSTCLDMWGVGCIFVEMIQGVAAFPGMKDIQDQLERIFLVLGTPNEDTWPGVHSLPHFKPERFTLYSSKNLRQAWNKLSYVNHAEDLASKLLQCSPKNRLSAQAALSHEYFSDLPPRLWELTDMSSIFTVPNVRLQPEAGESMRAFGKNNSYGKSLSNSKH

Compound	remaining activity at 0.1 µM [1] [%]	remaining activity at 0.1 µM [2] [%]	remaining activity at 0.1 µM [3] [%]	remaining activity at 0.1 µM [4] [%]	remaining activity at 0.1 µM [5] [%]	remaining activity at 0.1 µM [6] [%]	remaining activity at 0.1 µM [7] [%]	remaining activity at 0.1 µM [8] [%]	remaining activity at 0.1 µM [9] [%]	remaining activity at 0.1 µM [10] [%]	remaining activity at 0.1 µM [11] [%]	remaining activity at 0.1 µM [12] [%]	remaining activity at 0.1 µM [13] [%]	remaining activity at 0.1 µM [14] [%]	remaining activity at 0.1 µM [15] [%]	remaining activity at 0.1 µM [16] [%]	remaining activity at 0.1 µM [17] [%]	remaining activity at 0.1 µM [18] [%]	remaining activity at 0.1 µM [19] [%]	remaining activity at 0.1 µM [20] [%]	also measured
CN1CCN(Cc2ccc(-c3cnc4[nH]cc(-c5ccc6[nH]ccc6c5)c4c3)cc2)CC1 [Compound 1, 3-(1H-Indol-5-yl)-5-(4-((4-methylpiperazin-1-yl)methyl)phenyl)-1H-pyrrolo[2,3-b]pyridine, reference compound]	81.3	95.2	73.2	110	20.2	90.3	87.8	104	106	104	99.8	96.7	91.5	48.2	94.2	94.2	95	99	115	95.8	remaining activity at 0.1 µM [21]: 82.8%; remaining activity at 0.1 µM [22]: 91.3%; remaining activity at 0.1 µM [23]: 93%; remaining activity at 0.1 µM [24]: 100%
OCCN1CCN(Cc2ccc(-c3cnc4[nH]cc(-c5cccc(Cl)c5)c4c3)cc2)CC1 [Compound 12k, 2-(4-(4-(3-(3-Chlorophenyl)-1H-pyrrolo[2,3-b]pyridin-5-yl)benzyl)piperazin-1-yl)ethan-1-ol]	84.1	104	59.1	94.9	1.35	99.3	88.2	94.5	92.6	101	98.2	103	95.2	55.8	98.8	88.7	103	98.7	108	88.3	fold change in HGK activity following 12k exposure relative to 1 ([5]; 0.025 μM): 14.92 fold; remaining activity at 0.1 µM [21]: 59.5%; remaining activity at 0.1 µM [22]: 77.9%; remaining activity at 0.1 µM [23]: 94.8%; remaining activity at 0.1 µM [24]: 89%
